The subject of assay [1] is PBMC (polyclonal gluten-specific T cells) of paediatric and adult CD patients. Kind of assay: IFN-γ ELISpot of PBMC after 3 day oral wheat challenge (SFU, % of maximal peptide response, dominance scores, EC50; Examples 5-6). The note with it: for Dominance score 3-5yrs (n = 9): CD children 3-5yrs, n = 9, following wheat challenge; for Dominance score 3-5yrs (n = 9) / Dominance score 6-10yrs (n = 10) / Dominance score 11-18yrs (n = 11): mean percentage of maximal peptide response; for Dominance score 6-10yrs (n = 10): CD children 6-10yrs, n = 10, following wheat challenge; for Dominance score 11-18yrs (n = 11): CD children 11-18yrs, n = 11, following wheat challenge; for Dominance score Mean all ages: CD children, following wheat challenge (Table 9); for Dominance scores 3-5 yrs: children with celiac disease 3-5 yrs after wheat challenge (Table 14); for Dominance scores 6-10 yrs: children with celiac disease 6-10 yrs after wheat challenge (Table 14); for Dominance scores 11-18 yrs: children with celiac disease 11-18 yrs after wheat challenge (Table 14); for Dominance scores Mean all ages: mean of all subjects (Table 14); for IFN-γ ELISpot response: after oral wheat challenge. It counts as cell-based, human.

For assay [2] the test system is unchanged. The settings on record: corresponding adult data shown for comparison (14); cited from earlier work.
Setting [3] is: patient A, 11-17 yrs, cut-off 10 SFU.
Where [4] appears, read: patient D, max peptide 30.5 SFU.
Where [5] appears, read: patient E, H, 11-17 yrs, cut-off 10 SFU.
Where [6] appears, read: patient F, 11-17 yrs, cut-off 10 SFU.
[7] abbreviates: patient G, 11-17 yrs, cut-off 10 SFU.
The mark [8] stands for this setting: patient H (HLA-DQ2.5 homozygote), 3-5yrs, cut-off 10 SFU.
The mark [9] stands for this setting: patient H, 11-17 yrs, cut-off 10 SFU.
[10] abbreviates: patient ID not given, 11-17 yrs, cut-off 10 SFU.
Where [11] appears, read: patient ID not given, max peptide 95 SFU.
[12] abbreviates: patient N, 3-5yrs, cut-off 10 SFU.
Setting [13] is: patient P, 11-17 yrs, cut-off 21.6 SFU.
[14] abbreviates: patient Q, 11-17 yrs, cut-off 10 SFU.
Setting [15] is: patient U, H, 11-17 yrs, cut-off 10 SFU.
The mark [16] stands for this setting: patient V, 6-10 yrs, cut-off 10 SFU.
Where [17] appears, read: patient Y, 6-10 yrs, cut-off 10 SFU.
Setting [18] is: patient eleven, 6-10 yrs, cut-off 10 SFU.
[19] abbreviates: patient five, max peptide 48 SFU.
The mark [20] stands for this setting: patient four, 3-5yrs, cut-off 10 SFU.
Where [21] appears, read: patient seven, 6-10 yrs, cut-off 10.5 SFU.
Setting [22] is: patient ten, 3-5yrs, cut-off 10 SFU.
Setting [23] is: patient three, 6-10 yrs, cut-off 10.5 SFU.
The mark [24] stands for this setting: patient twelve, 11-17 yrs, cut-off 10 SFU.
[25] abbreviates: patient two, 3-5yrs, cut-off 10 SFU.
Where [26] appears, read: patient two, max peptide 60 SFU.

Regarding “QPFPQPEQPFPWQ [Peptide W03, contains DQ2.5-glia-w1 and w2]”, the “magnitude of T cell responses, HLA-DQ2.5 homozygous vs heterozygous” value in assay [1] is reported as “significantly greater”. In assay [1], the “Dominance score 3-5yrs (n = 9)” value is 66.6. The “Dominance score 6-10yrs (n = 10)” value in assay [1] is recorded as 51.5. The “Dominance score 11-18yrs (n = 11)” value in assay [1] came out at 46.5. In addition, the “Dominance score Mean all ages” value in assay [1] was 54.2. Besides, the “dominance hierarchy across all age groupings” value in assay [1] (Example 5) is given as “most dominant three peptides”. For the same substance, in assay [1] (Example 5, n=22), the “CD children responding (polyclonal T cells after oral wheat challenge)” value amounted to 68.2%. The “dominance hierarchy across all age groups” value in assay [1] (Example 6) was “most dominant four peptides”. The “CD children responding (polyclonal T cells induced by oral wheat challenge)” value in assay [1] (Example 6, n=22) stood at 68%. Besides, the “response to native vs deamidated form” value in assay [1] (all age groups) was “Deamidation enhanced the response”. For the same substance, the “Dominance scores 3-5 yrs” value in assay [1] amounted to 65. The “Dominance scores 6-10 yrs” value in assay [1] is given as 51. In assay [1], the “Dominance scores 11-18 yrs” value came to 46. Besides, the “Dominance scores Mean all ages” value in assay [1] is on record as 54. In addition, the “IFN-γ ELISpot responses Day 0 prior to vs Day 6 after wheat challenge” value in assay [1] (p<0.05, Kruskal Wallis) was “Significant gluten-specific responses were observed on Day 6 only”. The “IFN-γ ELISpot response” value in assay [1] (setting [3]) is 5 SFU; in assay [1] (setting [5]), 61 SFU; in assay [1] (setting [6]), 77 SFU; in assay [1] (setting [7]) it was 5 SFU; in assay [1] (setting [8]) it was 48 SFU; in assay [1] (setting [9]) it was 6 SFU. Moreover, the “IFN-γ ELISpot response” value worked out at 83 SFU in assay [1] (setting [10]); 19 SFU in assay [1] (setting [12]); 43 SFU in assay [1] (setting [13]); 54 SFU in assay [1] (setting [14]); 34 SFU in assay [1] (setting [15]); 34 SFU in assay [1] (setting [16]). Also, the “IFN-γ ELISpot response” value amounted to 8 SFU in assay [1] (setting [17]); 6 SFU in assay [1] (setting [18]); 18 SFU in assay [1] (setting [20]); 4 SFU in assay [1] (setting [21]); 8 SFU in assay [1] (setting [22]); 13 SFU in assay [1] (setting [23]). Moreover, the “IFN-γ ELISpot response” value is 17 SFU in assay [1] (setting [24]) and 60 SFU in assay [1] (setting [25]). Moreover, the “Significant response as percentage of maximal peptide SFU” value (“Significant response as percentage” for short) in assay [1] (setting [4]) is on record as “′′′ (41-70% = ′′′)”; in assay [1] (patient E, max peptide 224 SFU), “′′ (21-40% = ′′)”; in assay [1] (patient F, max peptide 178 SFU), “′′′ (41-70% = ′′′)”; in assay [1] (setting [11]), “+ (>70% = +)”; in assay [1] (patient J, max peptide 196 SFU) it was “′′′ (41-70% = ′′′)”; in assay [1] (patient K, max peptide 53 SFU), “′′ (21-40% = ′′)”. The “Significant response as percentage” value in assay [1] (patient M, max peptide 48 SFU) is “+ (>70% = +)”; in assay [1] (patient N, max peptide 19 SFU) it was “+ (>70% = +)”; in assay [1] (patient P, max peptide 64 SFU), “′′′ (41-70% = ′′′)”; in assay [1] (patient Q, max peptide 97 SFU), “′′′ (41-70% = ′′′)”; in assay [1] (patient U, max peptide 81 SFU), “′′′ (41-70% = ′′′)”; in assay [1] (patient V, max peptide 35 SFU), “+ (>70% = +)”. Further, the “Significant response as percentage” value in assay [1] (setting [19]) is given as “+ (>70% = +)”; in assay [1] (patient four, max peptide 44 SFU), “′′′ (41-70% = ′′′)”; in assay [1] (setting [26]), “+ (>70% = +)”. The “Dominance scores 18+ yrs” value in assay [2] is on record as 35.
On to QPFPQPQQPIPVQ [Peptide W04], for which the “Dominance score 3-5yrs (n = 9)” value in assay [1] is given as 44.5. Further, the “Dominance score 6-10yrs (n = 10)” value in assay [1] is recorded as 44.2. Further, the “Dominance score 11-18yrs (n = 11)” value in assay [1] worked out at 47.5. In addition, the “Dominance score Mean all ages” value in assay [1] is listed as 45.6. Further, in assay [1], the “Dominance scores 3-5 yrs” value is reported as 43. The “Dominance scores 6-10 yrs” value in assay [1] was determined as 44. Moreover, in assay [1], the “Dominance scores 11-18 yrs” value turned out to be 48. Moreover, the “Dominance scores Mean all ages” value in assay [1] is reported as 45. Further, the “IFN-γ ELISpot response” value in assay [1] (setting [3]) amounted to 1 SFU; in assay [1] (setting [5]), 51 SFU; in assay [1] (setting [6]), 40 SFU; in assay [1] (setting [7]), 4 SFU; in assay [1] (setting [8]), 9 SFU; in assay [1] (setting [9]), 4 SFU. The “IFN-γ ELISpot response” value turned out to be 65 SFU in assay [1] (setting [10]); 5 SFU in assay [1] (setting [12]); 21 SFU in assay [1] (setting [13]); 37 SFU in assay [1] (setting [14]); 30 SFU in assay [1] (setting [15]); 11 SFU in assay [1] (setting [16]). For the same substance, the “IFN-γ ELISpot response” value amounted to 3 SFU in assay [1] (setting [17]); 4 SFU in assay [1] (setting [18]); 9 SFU in assay [1] (setting [20]); 13 SFU in assay [1] (setting [21]); 9 SFU in assay [1] (setting [22]); 136 SFU in assay [1] (setting [23]). Moreover, the “IFN-γ ELISpot response” value in assay [1] (setting [24]) was 12 SFU; in assay [1] (setting [25]), 17 SFU. Also, the “Significant response as percentage” value in assay [1] (setting [4]) is on record as “′′ (21-40% = ′′)”; in assay [1] (patient E, max peptide 224 SFU) it was “′′ (21-40% = ′′)”; in assay [1] (patient F, max peptide 178 SFU), “′′ (21-40% = ′′)”; in assay [1] (setting [11]), “′′′ (41-70% = ′′′)”; in assay [1] (patient J, max peptide 196 SFU), “′′′ (41-70% = ′′′)”; in assay [1] (patient K, max peptide 53 SFU), “′′ (21-40% = ′′)”. The “Significant response as percentage” value in assay [1] (patient Q, max peptide 97 SFU) was “′′ (21-40% = ′′)”; in assay [1] (patient U, max peptide 81 SFU), “′′ (21-40% = ′′)”; in assay [1] (patient V, max peptide 35 SFU), “′′ (21-40% = ′′)”; in assay [1] (setting [19]), “+ (>70% = +)”; in assay [1] (patient seven, max peptide 27 SFU) it was “′′′ (41-70% = ′′′)”; in assay [1] (setting [26]), “′′ (21-40% = ′′)”. Also, in assay [2], the “Dominance scores 18+ yrs” value is on record as 31.
As to W05 (QPFPQPEQPFSQQ) [Peptide W05], in assay [1], the “Dominance score 3-5yrs (n = 9)” value turned out to be 23.4, the “Dominance score 6-10yrs (n = 10)” value turned out to be 33.3, the “Dominance score 11-18yrs (n = 11)” value came to 27.1 and the “Dominance score Mean all ages” value is 28.6. In assay [1], the “Dominance scores 3-5 yrs” value is reported as 23, the “Dominance scores 6-10 yrs” value is on record as 33, the “Dominance scores 11-18 yrs” value is given as 27 and the “Dominance scores Mean all ages” value is listed as 28. Further, the “Dominance scores 18+ yrs” value in assay [2] is listed as 15.
As to W07 (QPFPQPEQPFCQQ) [Peptide W07], in assay [1], the “Dominance score 3-5yrs (n = 9)” value came out at 38.2, the “Dominance score 6-10yrs (n = 10)” value stood at 20.5, the “Dominance score 11-18yrs (n = 11)” value is 16.2 and the “Dominance score Mean all ages” value is given as 22.7. Moreover, in assay [1], the “Dominance scores 3-5 yrs” value is 40, the “Dominance scores 6-10 yrs” value was found to be 20, the “Dominance scores 11-18 yrs” value was determined as 16 and the “Dominance scores Mean all ages” value turned out to be 24. The “Dominance scores 18+ yrs” value in assay [2] is recorded as 8.
W08 (LQPFPQPELPYSQP) [Peptide W08]: in assay [1], the “Dominance score 3-5yrs (n = 9)” value is given as 42.1, the “Dominance score 6-10yrs (n = 10)” value is reported as 51.7, the “Dominance score 11-18yrs (n = 11)” value turned out to be 40.2 and the “Dominance score Mean all ages” value amounted to 44.9. Also, in assay [1], the “Dominance scores 3-5 yrs” value was determined as 45, the “Dominance scores 6-10 yrs” value was 52, the “Dominance scores 11-18 yrs” value turned out to be 40 and the “Dominance scores Mean all ages” value was determined as 45. Besides, the “Dominance scores 18+ yrs” value in assay [2] is reported as 8.
Take W13 (LQPFPQPELPYLQP) [Peptide W13]: in assay [1], the “Dominance score 3-5yrs (n = 9)” value is on record as 29.3, the “Dominance score 6-10yrs (n = 10)” value was 32.0, the “Dominance score 11-18yrs (n = 11)” value came to 30.1 and the “Dominance score Mean all ages” value is on record as 30.7. For the same substance, in assay [1], the “Dominance scores 3-5 yrs” value is on record as 34, the “Dominance scores 6-10 yrs” value amounted to 32, the “Dominance scores 11-18 yrs” value was 30 and the “Dominance scores Mean all ages” value is reported as 32. The “Dominance scores 18+ yrs” value in assay [2] was 4.
W16 (FPQPEQEFPQPQQ) [Peptide W16]: in assay [1], the “Dominance score 3-5yrs (n = 9)” value worked out at 19.8, the “Dominance score 6-10yrs (n = 10)” value was 47.3, the “Dominance score 11-18yrs (n = 11)” value was found to be 26.1 and the “Dominance score Mean all ages” value is listed as 32.6. In assay [1], the “Dominance scores 3-5 yrs” value is recorded as 23, the “Dominance scores 6-10 yrs” value was 47, the “Dominance scores 11-18 yrs” value is 26 and the “Dominance scores Mean all ages” value is reported as 33. In addition, the “Dominance scores 18+ yrs” value in assay [2] is given as 0.

The record behind these values is patent publication US20170232083A1, “METHODS OF DIAGNOSIS AND TREATMENT OF CELIAC DISEASE IN CHILDREN” (priority 2014, published 2017).
